From US9808470B2, “Estrogenic components for use in the treatment of neurological disorders” (UNIVERSITE DE LIEGE, priority 2012, dated 2017)

How the values were obtained:
[1] = test system: cytosolic estrogen receptors; conditions: competitive receptor binding, relative to E2; cited from earlier work
[2] = test system: glial fibrillary acidic protein (GFAP); test: Ex.8 therapeutic HIE rat model: blood serum GFAP ELISA; type: in vivo; conditions: 10 mg/kg/day E4, PND14
Procedure: To study the therapeutic effect of estetrol, newborn rat pups were assigned to one of the following 14 groups at postnatal day 7 (FIG. 23(B)): Sham group (n=12), Vehicle (n=15), 5 mg/kg/day E4 (n=11), 10 mg/kg/day E4 (n=11), 5 mg/kg/day E4+1.6 mg/kg/day PROG (n=11), 10 mg/kg/day E4+1.6 mg/kg/day PROG (n=11), 5 mg/kg/day E4+16 mg/kg/day PROG (n=11), 10 mg/kg/day E4+16 mg/kg/day PROG (n=13), 5 mg/kg/day E4+136 ng//kg/day E2 (n=11), 10 mg/kg/day E4+136 ng/kg/day E2 (n=11), 5 mg/kg/day E4+1.6 mg/kg/day PROG+136 ng/kg/day E2 (n=12), 10 mg/kg/day E4+1.6 mg/kg/day PROG+136 ng/kg/day E2 (n=11), 5 mg/kg/day E4+16 mg/kg/day PROG+136 ng/kg/day E2 (n=11), 10 mg/kg/day E4+16 mg/kg/day PROG+136 ng/kg/day (n=12) groups. […] After surgery, the pups were returned to their dams and allowed to recover for 1 hour. The pups were then placed in a humidified hypoxic in vivo cabinet (CoyLab). Hypoxia was produced by the inhalation of 11%-8% of oxygen balanced by nitrogen at decreased concentration of oxygen for 20 minutes, followed by inhalation of 8% oxygen and 92% nitrogen at constant concentration for 35 minutes. All the manipulations were performed at 37° C. Upon retrieval from the hypoxia chamber the rat pups were injected ip once either by vehicle (vehicle group) or by in accordance to the group assignment. […]

S100B = test: Ex.4 therapeutic HIE rat model: blood serum S100B ELISA; type: in vivo; conditions: estetrol treated animals (1, 5, 10, 50 mg/kg single ip dose after HI); PND14; vs vehicle
Procedure: Blood was withdrawn, centrifuged and the serum samples were stored at −80° C.
ELISAs for detecting the brain damage markers S100B protein (Catalog# CSB-E08066r, Cusabio Biotech Co., LTD, China), and glial fibrillary acidic protein (GFAP) (Catalog# E90068Ra, Uscn Life sciences Inc., China) in blood serum samples were performed according to the manufacturers' recommendations.
To study the therapeutic effect of estetrol, newborn rat pups were assigned to one of the following 6 groups at postnatal day 7: sham group (n=29), vehicle group (n=20), 1 mg/kg E4 group (n=16), 5 mg/kg E4 group (n=19), 10 mg/kg day E4 (n=17) and 50 mg/kg day E4 group (n=15). At postnatal day 7 animals were anesthetized with isoflurane (induction, 3.0%; maintenance, 1.5%), and the rat pups from vehicle and E4 groups passed through surgery encompassing left common carotid artery double ligation and cut. After surgery, the pups were returned to their dams and allowed to recover for 1 hour. The pups were then placed in a humidified hypoxic in vivo cabinet (CoyLab). Hypoxia was produced by the inhalation of 11%-8% of oxygen balanced by nitrogen at decreased concentration of oxygen for 20 minutes, followed by inhalation of 8% oxygen and 92% nitrogen at constant concentration for 35 minutes. All the manipulations were performed at 37° C. […]

For C[C@]12CC[C@@H]3c4ccc(O)cc4CC[C@H]3[C@@H]1[C@@H](O)[C@@H](O)[C@@H]2O [E4, 1,3,5(10)-estratrien-3,15α,16α,17β-tetrol], the “values for cytosolic estrogen receptor binding” value [1] is listed as 0.015, the “GFAP protein concentration in blood serum” value [2] is listed as 10806.52 ± 1015.19 pg/mL and the “expression of S100B protein in blood serum” value (S100B) is listed as “significantly lower expression”.
